Tests used:
[1] = molecular target: Serine/threonine-protein kinase Sgk1 (Homo sapiens) (UniProt O00141); assay: Inhibition of human SGK1 at 100 nM
[2] = molecular target: Calcium/calmodulin-dependent protein kinase kinase 2 (Homo sapiens) (UniProt Q96RR4); assay: Inhibition of human CAMKKb at 100 nM
[3] = molecular target: Serine/threonine-protein kinase Chk1 (Homo sapiens) (UniProt O14757); assay: Inhibition of human CHK1 at 100 nM
[4] = molecular target: Dual specificity mitogen-activated protein kinase kinase 1 (Homo sapiens) (UniProt Q02750); assay: Inhibition of human MKK1 at 100 nM
[5] = molecular target: T1, Serine/threonine-protein kinase D1 (Homo sapiens) (UniProt Q15139); assay: Inhibition of human PKD1 at 100 nM
T1 sequence (whole entry): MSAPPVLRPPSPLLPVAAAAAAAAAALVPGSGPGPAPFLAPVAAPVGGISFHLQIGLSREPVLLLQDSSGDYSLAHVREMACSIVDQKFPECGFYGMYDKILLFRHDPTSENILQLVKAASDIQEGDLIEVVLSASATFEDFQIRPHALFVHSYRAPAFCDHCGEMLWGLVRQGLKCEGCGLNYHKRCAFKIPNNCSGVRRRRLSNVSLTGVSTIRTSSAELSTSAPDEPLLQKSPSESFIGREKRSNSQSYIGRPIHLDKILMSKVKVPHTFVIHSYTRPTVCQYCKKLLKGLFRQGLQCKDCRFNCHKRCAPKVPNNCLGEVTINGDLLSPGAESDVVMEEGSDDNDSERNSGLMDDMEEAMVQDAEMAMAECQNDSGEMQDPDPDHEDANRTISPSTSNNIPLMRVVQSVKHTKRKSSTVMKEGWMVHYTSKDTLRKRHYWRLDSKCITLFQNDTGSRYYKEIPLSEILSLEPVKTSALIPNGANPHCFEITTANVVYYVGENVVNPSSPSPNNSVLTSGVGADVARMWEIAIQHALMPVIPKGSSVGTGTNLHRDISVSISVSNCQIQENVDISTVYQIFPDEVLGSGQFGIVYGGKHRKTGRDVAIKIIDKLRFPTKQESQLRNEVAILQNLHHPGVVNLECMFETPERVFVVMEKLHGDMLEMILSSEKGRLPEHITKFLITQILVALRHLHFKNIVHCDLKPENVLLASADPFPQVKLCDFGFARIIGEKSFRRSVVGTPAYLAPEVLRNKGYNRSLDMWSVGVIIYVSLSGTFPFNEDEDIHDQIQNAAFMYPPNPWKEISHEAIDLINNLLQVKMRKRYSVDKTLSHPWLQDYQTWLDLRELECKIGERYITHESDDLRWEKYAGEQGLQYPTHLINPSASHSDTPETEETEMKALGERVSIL

[6] = molecular target: Mitogen-activated protein kinase kinase kinase 9 (Homo sapiens) (UniProt P80192); assay: Inhibition of human MLK1 at 100 nM
[7] = molecular target: Tyrosine-protein kinase Lck (Homo sapiens) (UniProt P06239); assay: Inhibition of human LCK at 100 nM
[8] = molecular target: Mitogen-activated protein kinase 3 (Homo sapiens) (UniProt P27361); assay: Inhibition of human ERK1 at 100 nM
[9] = molecular target: Mitogen-activated protein kinase kinase kinase 11 (Homo sapiens) (UniProt Q16584); assay: Inhibition of human MLK3 at 100 nM
[10] = molecular target: Mitogen-activated protein kinase 9 (Homo sapiens) (UniProt P45984); assay: Inhibition of human JNK2 at 100 nM
[11] = species: Homo sapiens; details: at 100 nM
Description: Inhibition of human PKA at 100 nM

[12] = molecular target: Protein kinase C alpha type (Homo sapiens) (UniProt P17252); assay: Inhibition of human PKCalpha at 100 nM
[13] = molecular target: MAP/microtubule affinity-regulating kinase 3 (Homo sapiens) (UniProt P27448); assay: Inhibition of human MARK3 at 100 nM
[14] = molecular target: Mitogen-activated protein kinase kinase kinase 7 (Homo sapiens) (UniProt O43318); assay: Inhibition of human TAK1 at 100 nM
[15] = molecular target: Dual specificity protein kinase TTK (Homo sapiens) (UniProt P33981); assay: Inhibition of human TTK at 100 nM
[16] = molecular target: RAC-beta serine/threonine-protein kinase (Homo sapiens) (UniProt P31751); assay: Inhibition of human PKBbeta at 100 nM
[17] = molecular target: RAC-alpha serine/threonine-protein kinase (Homo sapiens) (UniProt P31749); assay: Inhibition of human PKBalpha at 100 nM
[18] = molecular target: Serine/threonine-protein kinase TBK1 (Homo sapiens) (UniProt Q9UHD2); assay: Inhibition of human TBK1 at 100 nM
[19] = molecular target: 3-phosphoinositide-dependent protein kinase 1 (Homo sapiens) (UniProt O15530); assay: Inhibition of human PDK1 at 100 nM
[20] = molecular target: Tyrosine-protein kinase Yes (Homo sapiens) (UniProt P07947); assay: Inhibition of human YES1 at 100 nM
[21] = molecular target: Ribosomal protein S6 kinase alpha-5 (Homo sapiens) (UniProt O75582); assay: Inhibition of human MSK1 at 100 nM
[22] = molecular target: Mitogen-activated protein kinase 14 (Homo sapiens) (UniProt Q16539); assay: Inhibition of human p38a MAPK at 100 nM
[23] = molecular target: Misshapen-like kinase 1 (Homo sapiens) (UniProt Q8N4C8); assay: Inhibition of human MINK1 at 100 nM
[24] = molecular target: Mitogen-activated protein kinase 1 (Homo sapiens) (UniProt P28482); assay: Inhibition of human ERK2 at 100 nM
[25] = molecular target: Ribosomal protein S6 kinase alpha-1 (Homo sapiens) (UniProt Q15418); assay: Inhibition of human RSK1 at 100 nM

Measured: inhibition

Dual specificity mitogen-activated protein kinase kinase 1 (Homo sapiens), sequence (Q02750 whole entry): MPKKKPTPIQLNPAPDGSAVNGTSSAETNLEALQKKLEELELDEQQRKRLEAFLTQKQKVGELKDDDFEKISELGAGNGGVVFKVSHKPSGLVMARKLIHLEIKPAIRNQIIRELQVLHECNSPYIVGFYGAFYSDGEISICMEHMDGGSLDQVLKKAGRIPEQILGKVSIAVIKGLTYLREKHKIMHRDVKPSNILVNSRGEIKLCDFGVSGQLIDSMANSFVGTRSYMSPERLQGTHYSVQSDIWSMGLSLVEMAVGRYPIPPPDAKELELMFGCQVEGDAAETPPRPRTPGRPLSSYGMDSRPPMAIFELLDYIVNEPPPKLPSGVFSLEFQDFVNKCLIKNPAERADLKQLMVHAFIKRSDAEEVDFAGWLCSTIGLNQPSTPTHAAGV
Serine/threonine-protein kinase Sgk1 (Homo sapiens), sequence (O00141 whole entry): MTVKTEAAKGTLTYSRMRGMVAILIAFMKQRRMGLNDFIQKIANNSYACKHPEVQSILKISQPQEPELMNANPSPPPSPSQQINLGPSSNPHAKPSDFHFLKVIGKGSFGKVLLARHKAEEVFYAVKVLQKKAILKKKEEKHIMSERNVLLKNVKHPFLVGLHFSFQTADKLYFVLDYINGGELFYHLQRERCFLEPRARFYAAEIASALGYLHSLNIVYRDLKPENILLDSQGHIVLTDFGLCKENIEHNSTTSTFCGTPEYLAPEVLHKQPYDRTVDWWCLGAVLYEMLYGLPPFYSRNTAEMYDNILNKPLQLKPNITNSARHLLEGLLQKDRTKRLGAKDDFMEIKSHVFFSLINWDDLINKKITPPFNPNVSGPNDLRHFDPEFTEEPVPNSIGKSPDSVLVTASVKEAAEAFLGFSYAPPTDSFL
Tyrosine-protein kinase Lck (Homo sapiens), sequence (P06239 2-509 limits assumed): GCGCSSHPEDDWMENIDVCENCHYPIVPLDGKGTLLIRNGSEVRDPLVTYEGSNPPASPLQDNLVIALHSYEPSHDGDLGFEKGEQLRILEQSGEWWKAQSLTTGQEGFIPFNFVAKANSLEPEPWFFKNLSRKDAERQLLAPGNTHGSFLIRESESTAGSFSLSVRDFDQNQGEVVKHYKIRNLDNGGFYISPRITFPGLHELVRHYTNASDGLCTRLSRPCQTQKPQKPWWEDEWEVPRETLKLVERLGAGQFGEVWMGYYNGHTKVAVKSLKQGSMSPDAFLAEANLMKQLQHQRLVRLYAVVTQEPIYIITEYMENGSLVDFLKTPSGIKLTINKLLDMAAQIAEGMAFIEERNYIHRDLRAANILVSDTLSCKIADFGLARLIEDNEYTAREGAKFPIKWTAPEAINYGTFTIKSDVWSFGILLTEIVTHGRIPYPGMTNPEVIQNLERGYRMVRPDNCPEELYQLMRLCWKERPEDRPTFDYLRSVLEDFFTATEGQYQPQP
Ribosomal protein S6 kinase alpha-5 (Homo sapiens), sequence (O75582 whole entry, looked up): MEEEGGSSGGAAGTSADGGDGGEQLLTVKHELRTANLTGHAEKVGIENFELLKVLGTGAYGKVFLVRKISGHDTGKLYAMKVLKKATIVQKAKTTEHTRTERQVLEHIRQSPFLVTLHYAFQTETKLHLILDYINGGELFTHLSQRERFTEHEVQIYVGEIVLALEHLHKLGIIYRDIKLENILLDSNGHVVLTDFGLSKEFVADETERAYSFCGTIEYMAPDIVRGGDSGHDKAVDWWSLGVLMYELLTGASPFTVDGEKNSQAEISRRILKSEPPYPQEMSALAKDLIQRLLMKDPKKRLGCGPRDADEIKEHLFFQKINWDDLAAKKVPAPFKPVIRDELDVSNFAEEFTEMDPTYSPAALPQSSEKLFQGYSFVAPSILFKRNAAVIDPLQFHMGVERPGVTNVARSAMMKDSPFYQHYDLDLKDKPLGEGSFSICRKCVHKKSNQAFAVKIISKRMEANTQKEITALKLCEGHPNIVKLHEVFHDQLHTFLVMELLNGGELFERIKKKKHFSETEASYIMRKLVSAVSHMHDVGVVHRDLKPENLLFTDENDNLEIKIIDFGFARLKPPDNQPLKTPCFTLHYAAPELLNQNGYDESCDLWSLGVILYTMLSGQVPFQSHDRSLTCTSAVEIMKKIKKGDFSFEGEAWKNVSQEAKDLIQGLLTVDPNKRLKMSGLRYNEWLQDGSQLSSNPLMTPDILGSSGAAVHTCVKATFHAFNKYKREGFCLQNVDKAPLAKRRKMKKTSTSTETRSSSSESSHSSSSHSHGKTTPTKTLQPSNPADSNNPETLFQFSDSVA
3-phosphoinositide-dependent protein kinase 1 (Homo sapiens), sequence (O15530 whole entry): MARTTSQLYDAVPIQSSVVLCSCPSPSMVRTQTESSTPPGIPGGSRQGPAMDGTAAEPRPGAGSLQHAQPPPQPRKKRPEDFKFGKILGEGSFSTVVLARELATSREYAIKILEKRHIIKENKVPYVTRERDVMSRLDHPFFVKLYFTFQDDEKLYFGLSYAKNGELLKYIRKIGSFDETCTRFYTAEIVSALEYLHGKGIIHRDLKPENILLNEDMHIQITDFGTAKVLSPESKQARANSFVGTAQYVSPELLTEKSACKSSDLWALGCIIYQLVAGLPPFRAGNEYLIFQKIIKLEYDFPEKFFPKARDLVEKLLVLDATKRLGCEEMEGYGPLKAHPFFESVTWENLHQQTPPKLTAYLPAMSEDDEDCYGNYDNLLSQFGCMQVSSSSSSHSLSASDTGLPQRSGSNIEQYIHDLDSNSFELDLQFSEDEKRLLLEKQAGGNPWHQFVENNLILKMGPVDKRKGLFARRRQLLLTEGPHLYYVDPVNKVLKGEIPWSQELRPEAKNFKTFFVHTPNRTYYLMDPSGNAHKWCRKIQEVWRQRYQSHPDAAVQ
RAC-beta serine/threonine-protein kinase (Homo sapiens), sequence (P31751 whole entry): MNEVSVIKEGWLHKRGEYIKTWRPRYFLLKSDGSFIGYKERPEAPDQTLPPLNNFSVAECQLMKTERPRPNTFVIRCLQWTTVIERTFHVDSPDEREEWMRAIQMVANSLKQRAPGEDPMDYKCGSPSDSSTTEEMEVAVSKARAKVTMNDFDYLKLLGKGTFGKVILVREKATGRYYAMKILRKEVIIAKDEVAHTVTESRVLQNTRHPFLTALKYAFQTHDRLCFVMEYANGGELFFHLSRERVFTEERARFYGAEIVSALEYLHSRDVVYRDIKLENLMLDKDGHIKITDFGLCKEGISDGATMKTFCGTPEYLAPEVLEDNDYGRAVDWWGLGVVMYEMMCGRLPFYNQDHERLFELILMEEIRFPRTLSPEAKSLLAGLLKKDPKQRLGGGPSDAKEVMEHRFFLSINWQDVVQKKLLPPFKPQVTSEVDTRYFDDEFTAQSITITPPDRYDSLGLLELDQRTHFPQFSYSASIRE
RAC-alpha serine/threonine-protein kinase (Homo sapiens), sequence (P31749 whole entry): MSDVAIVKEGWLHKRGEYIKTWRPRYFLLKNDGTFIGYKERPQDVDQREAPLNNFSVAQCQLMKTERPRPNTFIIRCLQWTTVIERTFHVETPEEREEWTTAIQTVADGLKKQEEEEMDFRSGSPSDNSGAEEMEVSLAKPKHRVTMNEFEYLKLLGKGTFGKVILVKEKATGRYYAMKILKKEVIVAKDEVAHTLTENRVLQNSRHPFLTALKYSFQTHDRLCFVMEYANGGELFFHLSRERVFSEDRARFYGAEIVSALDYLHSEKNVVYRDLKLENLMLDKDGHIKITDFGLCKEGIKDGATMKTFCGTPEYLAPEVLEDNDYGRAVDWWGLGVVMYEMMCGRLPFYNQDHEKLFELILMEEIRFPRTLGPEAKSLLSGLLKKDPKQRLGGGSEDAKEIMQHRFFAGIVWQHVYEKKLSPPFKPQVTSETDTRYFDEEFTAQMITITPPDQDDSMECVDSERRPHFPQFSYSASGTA
Tyrosine-protein kinase Yes (Homo sapiens), sequence (P07947 2-543 limits assumed): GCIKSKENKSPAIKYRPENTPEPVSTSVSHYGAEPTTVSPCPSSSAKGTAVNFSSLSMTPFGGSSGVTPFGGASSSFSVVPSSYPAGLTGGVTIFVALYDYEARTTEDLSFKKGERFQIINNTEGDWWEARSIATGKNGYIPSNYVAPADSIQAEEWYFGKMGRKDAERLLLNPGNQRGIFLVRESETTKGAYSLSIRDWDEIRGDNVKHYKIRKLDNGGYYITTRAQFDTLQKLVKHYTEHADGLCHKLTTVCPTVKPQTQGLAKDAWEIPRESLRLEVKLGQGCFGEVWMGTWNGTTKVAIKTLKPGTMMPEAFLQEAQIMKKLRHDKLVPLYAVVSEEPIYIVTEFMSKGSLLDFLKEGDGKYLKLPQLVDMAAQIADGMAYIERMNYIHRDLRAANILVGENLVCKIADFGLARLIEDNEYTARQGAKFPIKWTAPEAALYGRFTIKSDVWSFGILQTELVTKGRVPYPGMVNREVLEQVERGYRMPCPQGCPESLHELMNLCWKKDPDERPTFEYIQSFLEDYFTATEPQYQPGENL

CN1CCC(c2nc(-c3cccc(S(C)(=O)=O)c3)c(-c3ccnc(Nc4ccc(N5CCNCC5)cc4)n3)s2)CC1
< 70%: all assays above

CN1CCC(c2nc(-c3ccc(F)c(NS(C)(=O)=O)c3)c(-c3ccnc(NCC4CC4)n3)s2)CC1
< 70%: all assays above
